In the NIST ThermoML archive (doi:10.1021/acs.jced.5b00367):
“And” between values parts separate entries of the source, which are not always exact repeats. Equal entries are not always repeated. Numbers after ± are expanded uncertainties.

Assay: wn = mass fraction of the nth substance listed
Conditions: 101 kPa, Liquid, Alternating current cell with electrodes, w2 = 0.01

Measured: electrical conductivity

CCCCCCCCCCCC[N+](C)(C)C.[Br-] [dodecyltrimethylammonium bromide] + O
0.189 ± 0.075 S/m: 300.75 K
0.195 ± 0.078 S/m: 307.05 K | 307.85 K
0.189 ± 0.076 S/m: 301.05 K | 301.55 K | 301.75 K
0.194 ± 0.078 S/m: 306.15 K | 306.45 K | 306.75 K
0.199 ± 0.08 S/m: 310.65 K | 310.95 K | 311.35 K
0.187 ± 0.075 S/m: 298.65 K | 298.85 K | 299.05 K
0.184 ± 0.074 S/m: 282.35 K | 282.45 K | 282.55 K | 282.65 K | 282.75 K | 282.85 K | 282.95 K | 283.05 K | 283.15 K | 283.25 K | 283.35 K | 283.55 K | 293.25 K | 294.25 K | 294.35 K | 294.45 K | 294.55 K | 294.75 K
0.193 ± 0.077 S/m: 305.45 K
0.197 ± 0.079 S/m: 309.35 K | 309.55 K
0.182 ± 0.073 S/m: 288.05 K | 288.15 K | 288.25 K | 288.35 K | 288.45 K | 288.55 K | 288.65 K | 288.75 K | 288.85 K | 288.95 K
0.185 ± 0.074 S/m: 280.75 K | 280.85 K | 280.95 K | 281.05 K | 281.15 K | 281.25 K | 281.35 K | 281.45 K | 281.55 K | 281.65 K | 281.85 K | 281.95 K | 282.05 K | 282.15 K | 282.25 K | 294.85 K | 294.95 K | 295.15 K | 295.25 K | 295.45 K | 295.65 K | 295.75 K | 296.05 K | 296.15 K | 296.55 K
0.196 ± 0.078 S/m: 308.15 K
0.191 ± 0.076 S/m: 302.95 K | 303.25 K | 303.65 K | 303.85 K
0.199 ± 0.079 S/m: 310.35 K
0.192 ± 0.077 S/m: 304.15 K
0.196 ± 0.079 S/m: 308.45 K | 308.75 K
0.188 ± 0.075 S/m: 299.25 K | 299.55 K | 299.75 K | 299.85 K | 300.05 K | 300.25 K | 300.45 K
0.19 ± 0.076 S/m: 301.95 K | 302.25 K | 302.55 K | 302.75 K
0.186 ± 0.075 S/m: 279.25 K | 279.35 K | 279.95 K | 297.85 K | 298.15 K
0.186 ± 0.074 S/m: 279.15 K | 279.45 K | 279.55 K | 279.65 K | 279.85 K | 280.05 K | 280.15 K | 280.25 K | 280.35 K | 280.45 K | 280.55 K | 280.65 K | 296.85 K | 297.05 K | 297.25 K | 297.45 K | 297.65 K
0.184 ± 0.073 S/m: 283.45 K | 283.65 K | 283.75 K | 283.85 K | 283.95 K | 284.15 K | 292.95 K | 293.05 K | 293.15 K
0.183 ± 0.073 S/m: 284.25 K | 284.35 K | 284.45 K | 284.55 K | 284.65 K | 284.75 K | 284.85 K | 284.95 K | 285.05 K | 285.15 K | 289.85 K | 289.95 K | 290.05 K | 290.15 K | 290.25 K | 290.35 K | 290.45 K | 290.55 K | 290.65 K | 290.75 K | 290.85 K | 290.95 K | 291.05 K | 291.15 K | 291.25 K | 291.35 K | 291.45 K | 291.55 K | 291.65 K | 291.75 K | 291.85 K | 292.15 K | 292.25 K | 292.65 K | 292.75 K | 292.85 K
0.183 S/m and 0.184 S/m: 284.05 K
0.198 ± 0.079 S/m: 309.85 K | 310.05 K
